Results on four molecules are retold here after US20100298138A1, “Aminoazoline and Urea Derivatives for Combating Animal Pests” (BASF SE, priority 2007, published 2010).

The subject of data set [1] is Cotton Aphid (Aphis gossypii). Briefly: whole plant or invertebrate. Type of data set: in vivo. The following applies: 120 h. An excerpt: • 2. Biological Examples II.1 Cotton Aphid (Aphis gossypii), Mixed Life Stages
The active compounds were formulated in 50:50 acetone: water and 100 ppm Kinetic® surfactant.
Cotton plants at the cotyledon stage (one plant per pot) were infested by placing a heavily infested leaf from the main colony on top of each cotyledon. The aphids were allowed to transfer to the host plant overnight, and the leaf used to transfer the aphids was removed. The cotyledons were dipped in the test solution and allowed to dry. After 5 days, mortality counts were made.

For data set [2], the system named is Silverleaf Whitefly (Bemisia argentifolii). The data set is described as follows: whole plant or invertebrate. The format is in vivo. The following applies: in Gossypium hirsutum, 72 h, 3 days after treatment, in comparison with untreated controls. As for the experimental part: II.4 Silverleaf Whitefly (Bemisia argentifolii), Adult
The active compounds were formulated in 50:50 acetone:water and 100 ppm Kinetic® surfactant.
Selected cotton plants were grown to the cotyledon state (one plant per pot). The cotyledons were dipped into the test solution to provide complete coverage of the foliage and placed in a well-vented area to dry. Each pot with treated seedling was placed in a plastic cup and 10 to 12 whitefly adults (approximately 3-5 day old) were introduced. The insects were collected using an aspirator and an 0.6 cm, non-toxic Tygon® tubing (R-3603) connected to a barrier pipette tip. The tip, containing the collected insects, was then gently inserted into the soil containing the treated plant, allowing insects to crawl out of the tip to reach the foliage for feeding. The cups were covered with a reusable screened lid (150 micron mesh polyester screen PeCap from Tetko Inc). Test plants were maintained in the holding room at about 25° C. and 20-40% relative humidity for 3 days avoiding direct exposure to the fluorescent light (24 hour photoperiod) to prevent trapping of heat inside the cup. Mortality was assessed 3 days after treatment of the plants.

For data set [3], the system named is Brown Planthopper (Nilaparvata lugens). The data set is described as follows: whole plant or invertebrate. Type of data set: in vivo. Conditions: in Oryza sativa, assessed 24, 48 and 72 hours after treatment, in comparison with untreated controls. As for the experimental part: II.5 Brown Planthopper (Nilaparvata lugens)
The active compounds were formulated as a 20:80 acetone:water solution. Surfactant (Alkamuls EL 620) was added at the rate of 0.1% (vol/vol).
Potted rice plants of 3-4 weeks of age are sprayed with 10 ml of the test solution using air driven hand atomizer (Devillbis atomizer) at 1.7 bar. The treated plants are allowed to dry for about 1 hour and covered with Mylar cages. The plants are inoculated with 10 adults of the specie (5 male and 5 females) and kept at 25-27° C. and 50-60% humidity for 3 days. Mortality is assed after 24, 48 and 72 hours after treatment. Dead insects are usually found in the water surface. Each treatment is replicated once.

The test system of data set [4] is Mediterranean fruitfly (Ceratitis capitata). The following applies: eggs treated with 2500 ppm; 6 days. The protocol: II.9 Activity against Mediterranean fruitfly (Ceratitis capitata)
50 to 80 eggs were placed into microtiterplates filled with 0.5% agar-agar and 14% diet in water. The eggs were sprayed with 5 μl of the test solution, the plates were sealed with pierced foils and kept at 27-29° C. and 75-85% humidity under fluorescent light for 6 days. Mortality was assessed on the basis of the agility of the hatched larvae. Tests were replicated 2 times.

Turning to `Clc1cccc2c1CC(NC1=NCCS1)CC2` (centres unmarked) [compound 2a, (8-Chloro-1,2,3,4-tetrahydro-naphthalen-2-yl)-(4,5-dihydro-thiazol-2-yl)-amine], in data set [1], the mortality at 300 ppm is at least 50%.

For `COc1ccc2c(c1)CC(NC(=S)NCCOC(=O)c1ccccc1)CC2` (centres unmarked) [compound 16, Benzoic acid 2-[3-(7-methoxy-1,2,3,4-tetrahydro-naphthalen-2-yl)-thioureido]-ethyl ester], the mortality at 300 ppm in data set [2] is at least 50%.

As to `COc1ccc2c(c1)CC(NC(=S)NCCOC(C)=O)CC2` (centres unmarked) [compound 17, Acetic acid 2-[3-(7-methoxy-1,2,3,4-tetrahydro-naphthalen-2-yl)-thioureido]-ethyl ester], the mortality at 300 ppm in data set [2] and in data set [3] was at least 50% each time.

Consider `COc1ccc2c(c1)CC(NC(=S)NCCO)CC2` (centres unmarked) [compound 18], for which the mortality entry in data set [4] was “at least 50%”.
